This passage reports IC50 and melting point results from patent US6936609B2, “Imidazotriazines for use as phosphodiesterase inhibitors” (Bayer HealthCare AG, priority 2001, dated 2005).

In one series the target is T1, PDE 10A (Homo sapiens, UniProt Q9Y233).
T1 construct: is expressed recombinantly in full length in Sf9 insect cells; made in house; host or cells: Sf9 insect cells (Bac-to-Bac baculovirus system); lysate supernatant used as the enzyme preparation
Briefly: Inhibition of PDE 10A (in vitro enzyme inhibition test). It counts as biochemical. Conditions: recombinant full-length PDE10A expressed in Sf9 insect cells; substrate [5',8-3H] adenosine 3',5'-cyclic phosphate; 60 min at room temperature; scintillation proximity beads. As to the method:
PDE10A (WO 01/29 199, FIG. 1A) is expressed recombinantly in full length in Sf9 insect cells (Invitrogen, Carlsbad, Calif.) with the aid of the Bac-to-Bac™ Baculovirus expression system of Life Technologies (Gaithersburg, Md.). 48 h after the infection, the cells are harvested and suspended in 20 ml (per 1 l of culture) of lysis buffer (50 mM tris HCl, pH 7.4, 50 mM NaCl, 1 mM MgCl2, 1.5 mM EDTA, 10% glycerol plus 20 μl of Protease Inhibitor Cocktail Set III [CalBiochem, La Jolla, Calif. USA]). The cells are treated at 4° C. for 1 minute with ultrasound and subsequently centrifuged at 10000 rpm for 30 minutes at 4° C. The supernatant (PDE10A preparation) was collected and stored at −20° C.
The test substances are dissolved and serially diluted in 100% DMSO for the determination of their in vitro action on PDE 10A. Typically, dilution series of 200 μM to 1.6 μM are prepared (resulting final concentrations in the test: 4 μM to 0.032 μM). In each case, 2 μl of the diluted substance solutions are introduced into the wells of microtitre plates (Isoplate; Wallac Inc., Atlanta, Ga.). 50 μl of a dilution of the PDE10A preparation described above are subsequently added. The dilution of the PDE10A preparation is chosen such that during the later incubation less than 70% of the substrate is reacted (typical dilution: 1:10000; dilution buffer: 50 mM tris/HCl pH 7.5, 8.3 mM MgCl2, 1.7 mM EDTA, 0.2% BSA). The substrate, [5′,8-^3H] adenosine 3′, 5′-cyclic phosphate (1 μCi/μl; Amersham Pharmacia Biotech., Piscataway, N.J.) is diluted 1:2000 to a concentration of 0.0005 μCi/μl with assay buffer (50 mM tris/HCl pH 7.5, 8.3 mM MgCl2, 1.7 mM EDTA). The enzyme reaction is finally started by addition of 50 μl (0.025 μCi) of the diluted substrate. The test batches are incubated at room temperature for 60 min and the reaction is stopped by addition of 25 μl of a suspension containing 18 mg/ml of Yttrium Scintillation Proximity Beads (Amersham Pharmacia Biotech., Piscataway, N.J.). The microtitre plates are sealed using a film and allowed to stand at room temperature for 60 min. The plates are subsequently measured for 30 s per well in a Microbeta scintillation counter (Wallac Inc., Atlanta, Ga.). IC50 values are determined with the aid of graphic plotting of the substance concentration against the percentage inhibition.

T1 sequence (Q9Y233 1-779 isoform Q9Y233-1): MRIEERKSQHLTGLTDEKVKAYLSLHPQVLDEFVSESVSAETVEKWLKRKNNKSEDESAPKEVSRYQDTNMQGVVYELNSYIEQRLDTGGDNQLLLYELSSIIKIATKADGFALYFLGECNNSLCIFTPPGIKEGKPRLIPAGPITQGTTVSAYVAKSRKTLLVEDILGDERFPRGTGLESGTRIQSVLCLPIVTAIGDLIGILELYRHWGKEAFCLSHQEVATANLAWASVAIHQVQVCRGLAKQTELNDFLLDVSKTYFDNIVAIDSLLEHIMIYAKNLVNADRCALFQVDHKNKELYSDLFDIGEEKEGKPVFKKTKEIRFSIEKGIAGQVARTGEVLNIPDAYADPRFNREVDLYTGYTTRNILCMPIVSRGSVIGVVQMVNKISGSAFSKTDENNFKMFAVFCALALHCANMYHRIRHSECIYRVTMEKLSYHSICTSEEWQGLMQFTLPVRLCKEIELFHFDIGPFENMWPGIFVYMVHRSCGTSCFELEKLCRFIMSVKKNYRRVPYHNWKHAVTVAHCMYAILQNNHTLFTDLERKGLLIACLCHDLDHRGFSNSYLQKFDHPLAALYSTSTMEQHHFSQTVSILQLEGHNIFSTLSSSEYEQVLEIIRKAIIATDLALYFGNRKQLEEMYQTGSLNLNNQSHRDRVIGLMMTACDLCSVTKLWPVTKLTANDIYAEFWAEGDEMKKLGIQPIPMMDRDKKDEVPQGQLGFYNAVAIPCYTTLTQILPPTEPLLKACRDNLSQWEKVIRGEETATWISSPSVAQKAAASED

As for `COc1ccc(-c2nc(Nc3cc(OC)c(OC)c(OC)c3)c3c(C)nc(C4CCCC4)n3n2)cc1S(=O)(=O)N1CCOCC1` [Example 24, 7-Cyclopentyl-2-[4-methoxy-3-(4-morpholinylsulphonyl)phenyl]-5-methyl-N-(3,4,5-trimethoxyphenyl)imidazo[5,1-f][1,2,4]triazin-4-amine], the IC50 at PDE 10A was found to be 13 nM.

The compound `COc1cc(Nc2nc(-c3ccc(C)cc3)nn3c(C)nc(C)c23)cc(OC)c1OC` [Example 53, N-[5,7-Dimethyl-2-(4-methylphenyl)imidazo[5,1-f][1,2,4]triazin-4-yl]-N-(3,4,5-trimethoxyphenyl)amine] had a melting point of 212 to 214 °C. For the same compound, the IC50 at PDE 10A is 45 nM.

In the case of `COc1cc(CNc2nc(-c3ccc(OC)c(OC)c3)nn3c(C)nc(C)c23)cc(OC)c1` [Example 3, N-(3,5-Dimethoxybenzyl)-2-(3,4-dimethoxyphenyl)-5,7-dimethylimidazo[5,1-f]-[1,2,4]triazin-4-amine], at PDE 10A, the IC50 was found to be 360 nM.

As to `COc1ccc(Nc2nc(-c3ccc(OC)c(OC)c3)nn3c(C4CCCC4)nc(C)c23)cc1Cl` [Example 16, N-(3-Chloro-4-methoxyphenyl)-7-cyclopentyl-2-(3,4-dimethoxyphenyl)-5-methyl-imidazo[5,1-f][1,2,4]triazin-4-amine], at PDE 10A, the IC50 was determined as 210 nM.

Take `CCCc1nc(C)c2c(Nc3cccc(O)c3)nc(-c3ccccc3OCC)nn12` [Example 43, 3-{[2-(2-Ethoxyphenyl)-5-methyl-7-propylimidazo[5,1-f][1,2,4]triazin-4-yl]-amino}phenol]: the IC50 on PDE 10A worked out at 2400 nM.

In turn, `COc1cc(Nc2nc(-c3ccc(Br)cc3)nn3c(C)nc(C)c23)cc(OC)c1OC` [Example 48, N-[2-(4-Bromophenyl)-5,7-dimethylimidazo[5,1-f][1,2,4]triazin-4-yl]-N-(3,4,5-trimethoxyphenyl)amine] gave a melting point of 219 to 220 °C. Also, the IC50 on PDE 10A came to 68 nM.

`COc1ccc(Nc2nc(-c3ccc(OC)c(OC)c3)nn3c(C4CCCC4)nc(C)c23)c(OC)c1` [Example 18, N-[7-Cyclopentyl-2-(3,4-dimethoxyphenyl)-5-methylimidazo[5,1-f][1,2,4]triazin-4-yl]-N-(2,4-dimethoxyphenyl)amine]: the melting point was found to be 244 °C. At PDE 10A, the IC50 amounted to 91 nM.
